Series [1] can be described thus: Cytotoxicity on uninfected Hep-2 cells (MTT, 48 h). The following applies: human, read-out: CC50 (reduce cell viability by 50%), CVB3 host cells. It counts as cell-based. How it is done:
(§1) Human laryngeal carcinoma cells (Hep-2) and human cervical carcinoma cells (HeLa) were maintained in DMEM (Gibco) supplemented with 10% fetal bovine serum (FBS; Gibco), 100 U/mL penicillin and streptomycin, and 2 mM L-glutamine.
(§2) The antiviral activities of compounds against CVB3 and ADV7 were determined by measuring their inhibition of virus-induced CPEs in acutely infected Hep-2 and HeLa cells, respectively. Confluent cell monolayers in 96-well plates were infected with 100 TCID50 of CVB3 or ADV7 for 1.5 h at 37 °C, inocula were aspirated, and the cells then were incubated with various concentrations of compounds at 37 °C, 5% CO2, for 48 h. CPEs were observed by microscopy and the viability of cells was determined using MTT assays. The concentrations of test compounds required to achieve 50% protection from virus-induced cytopathogenicity (EC50 values) were determined. Adverse effects of tested compounds on host cells were also assessed using the MTT method after exposing uninfected cells to various concentrations of test compounds for 48 h at 37 °C. The CC50 values of compounds were calculated using SPSS software and selectivity indices were the ratio of CC50:EC50. Each experiment was performed in triplicate and at least three times, independently.

A short description of series [2]: Cytotoxicity on uninfected HeLa cells (MTT, 48 h). The series is classed as cell-based. Conditions: human, read-out: CC50 (reduce cell viability by 50%), ADV7 host cells. The method, then: as §1, §2
Another series concerns CVB3. The experiment in a line: Inhibition of CVB3-induced cytopathic effects in Hep-2 cells (MTT). The series is classed as cell-based, Coxsackievirus B3. The following applies: for EC50: Enterovirus B, 100 TCID50 CVB3, 48 h, MTT, read-out: EC50 (50% protection from virus-induced cytopathogenicity), CVB3. How it is done:
(§3) Figure 1 Antiviral activities of novel 2-benzoxyl-phenylpyridine derivatives against CVB3 and ADV7. […] Hep-2 or HeLa cells were infected with 100 TCID50 of CVB3 or ADV7 for 1.5 h at 37 °C. Then, the inocula were aspirated and the cells were incubated with various concentrations of test compounds for 48 h. Cell viability was determined using the MTT assay. (b) Images showing the morphology of Hep-2 and HeLa cells treated with 120 μM W-9, 160 μM W-13, or 160 μM W-15 (magnification, 20×).
as §2
In general terms: Cytopathic effects are the visible damage that an infection or toxin causes in cultured cells.

Another series deals with ADV7. Briefly: Inhibition of ADV7-induced cytopathic effects in HeLa cells (MTT). Conditions: for EC50: Human mastadenovirus B, 100 TCID50 ADV7, 48 h, MTT, read-out: EC50 (50% protection from virus-induced cytopathogenicity), ADV7. The series is classed as cell-based, adenovirus type 7. How it is done:
as §3, §2

As a reminder, the CC50 is the concentration giving 50% cytotoxicity. For orientation: EC50 means the midpoint of the concentration-response curve.

With `Cc1ccc(OC(=O)c2ccccc2)c(-c2ncccc2C)c1` [W6], the CC50 at 48 h in series [1] was determined as 244 ± 30.4 µM. In addition, in series [2], the CC50 at 48 h amounted to 326 ± 21.8 µM. For the same molecule, in the series on CVB3, the “SI (CC50/EC50), CVB3” value amounted to 2.8; the “inhibitory activity against CVB3 infection (in words)” value was “significant inhibitory activities”; the EC50 is 88.4 ± 19.5 µM. Besides, in the series with ADV7, the “SI (CC50/EC50), ADV7” value is recorded as 4.9; the “inhibitory activity against ADV7 infection (in words)” value is given as “significant inhibitory activities”; the concentration for a half-maximal effect (EC50) worked out at 66 ± 20.1 µM.

With `O=C(Oc1cc(Br)ccc1-c1ccccn1)c1ccccc1` [W10], the cytotoxic concentration (CC50) at 48 h in series [1] is 184 ± 26.3 µM. The 50% cytotoxic concentration (CC50) at 48 h in series [2] stood at 249 ± 23.2 µM. For the same molecule, in the series with CVB3, the “SI (CC50/EC50), CVB3” value was found to be 5.0; the “inhibitory activity against CVB3 infection (in words)” value is reported as “significant inhibitory activities”; the concentration for a half-maximal effect (EC50) turned out to be 36.7 ± 15.8 µM. In addition, in the series with ADV7, the “SI (CC50/EC50), ADV7” value turned out to be 4.9; the “inhibitory activity against ADV7 infection (in words)” value was “significant inhibitory activities”; the concentration for a half-maximal effect (EC50) came to 51.1 ± 20.1 µM.

Take `O=C(Oc1ccsc1-c1ccccn1)c1ccccc1` [W11]: the CC50 at 48 h in series [1] was found to be 378 ± 19.2 µM; in series [2] it was 1020 ± 72.6 µM.

For the molecule `COc1ccc(-c2ccccn2)c(OC(=O)c2ccccc2)c1` [W2], the cytotoxic concentration (CC50) at 48 h in series [1] was found to be 240 ± 22 µM. Also, the 50% cytotoxic concentration (CC50) at 48 h in series [2] was more than 656 µM. In the series with CVB3, the “SI (CC50/EC50), CVB3” value turned out to be 2.4; the “inhibitory activity against CVB3 infection (in words)” value is “significant inhibitory activities”; the concentration for a half-maximal effect (EC50) came to 101 ± 14.1 µM. In the series on ADV7, the “SI (CC50/EC50), ADV7” value is reported as more than 12.9; the “inhibitory activity against ADV7 infection (in words)” value was “significant inhibitory activities”; the 50% effective concentration (EC50) came out at 50.8 ± 16.7 µM.

`Cc1cccnc1-c1ccc(Br)cc1OC(=O)c1ccccc1` [W12]: the half-maximal cytotoxic concentration (CC50) at 48 h in series [1] is 128 ± 17.9 µM. The 50% cytotoxic concentration (CC50) at 48 h in series [2] amounted to 211 ± 14.7 µM. Moreover, in the series on ADV7, the “SI (CC50/EC50), ADV7” value is listed as 3.3; the “inhibitory activity against ADV7 infection (in words)” value is recorded as “selective anti-ADV7 activity”; the EC50 was determined as 63.6 ± 16.6 µM.

As for `Cc1cccnc1-c1ccc(Cl)cc1OC(=O)c1ccccc1` [W4], the CC50 at 48 h in series [1] was 222 ± 24.1 µM. In series [2], the 50% cytotoxic concentration (CC50) at 48 h is 797 ± 45.7 µM. Further, in the series with CVB3, the “SI (CC50/EC50), CVB3” value amounted to 4.1; the “inhibitory activity against CVB3 infection (in words)” value was “selective antiviral activities against CVB3”; the EC50 came out at 54.4 ± 11.1 µM.

Regarding `COc1ccc(OC(=O)c2ccccc2)c(-c2ncccc2C)c1` [W5], the results for the half-maximal cytotoxic concentration (CC50) at 48 h in series [1] and in series [2] were 33.5 ± 9.4 µM and 38.9 ± 18.8 µM, respectively.

Regarding `Cc1cccc(OC(=O)c2ccccc2)c1-c1ccccn1` [W3], the CC50 at 48 h in series [1] stood at 630 ± 39.4 µM; in series [2], 921 ± 59.5 µM. In addition, in the series with CVB3, the “SI (CC50/EC50), CVB3” value is 6.0. In the series on ADV7, the “SI (CC50/EC50), ADV7” value was determined as 9.8.

As to `O=C(Oc1ccccc1-c1ccccn1)c1ccccc1` [W1], the values for the cytotoxic concentration (CC50) at 48 h in series [1] and in series [2] were 594 ± 49.1 µM and 1060 ± 93.5 µM, respectively.

In the case of `CC(=O)c1ccc(-c2ccccn2)c(OC(=O)c2ccccc2)c1` [W14], the half-maximal cytotoxic concentration (CC50) at 48 h in series [1] was 490 ± 26.8 µM. For the same molecule, the 50% cytotoxic concentration (CC50) at 48 h in series [2] was determined as 979 ± 27.8 µM. In addition, in the series with CVB3, the “SI (CC50/EC50), CVB3” value came out at 5.6; the “inhibitory activity against CVB3 infection (in words)” value is listed as “significant inhibitory activities”; the EC50 worked out at 87.1 ± 21.1 µM. Moreover, in the series with ADV7, the “SI (CC50/EC50), ADV7” value worked out at 13.0; the “inhibitory activity against ADV7 infection (in words)” value is given as “significant inhibitory activities”; the EC50 is 75.4 ± 20.2 µM.

`Cc1cccnc1-c1ccc(F)cc1OC(=O)c1ccccc1` [W8]: the half-maximal cytotoxic concentration (CC50) at 48 h in series [1] is 354 ± 49.5 µM. For the same molecule, the CC50 at 48 h in series [2] is 843 ± 37.1 µM. Also, in the series on CVB3, the “SI (CC50/EC50), CVB3” value turned out to be 4.4; the “inhibitory activity against CVB3 infection (in words)” value is “selective antiviral activities against CVB3”; the half-maximal effective concentration (EC50) turned out to be 80.1 ± 15 µM.

`Cc1cccnc1-c1sccc1OC(=O)c1ccccc1` [W7]: the figures for the 50% cytotoxic concentration (CC50) at 48 h in series [1] and in series [2] were 350 ± 28.8 µM and 1030 ± 63.1 µM, respectively.

These data come from PMC7144376, “Antiviral Effects of Novel 2-Benzoxyl-Phenylpyridine Derivatives” (Molecules, 2020).
